Measurements published in publication PMC3553236 (Biochemical pharmacology, 2012).
Where two headings read alike, the source gives them in different places. Blank lines part the entries; values can stand above or below the compound they belong to.

Key:
[1] = Cytotoxicity / MDR reversal assay, MDR19-HEK293; format: cell-based, human; settings: human, MDR19-HEK293 cells (ABCB1-transfected HEK293)
[2] = system: MDR19-HEK293 (ABCB1) cells; assay: Cytotoxicity / MDR reversal assay, MDR19-HEK293; format: cell-based, human; settings: for R.R of doxorubicin in the presence of the treatment: MDR19-HEK293 / pcDNA-HEK293
pcDNA-HEK293 cells = assay: Cytotoxicity / MDR reversal assay, pcDNA-HEK293; format: cell-based; settings: Homo sapiens
[3] = system: MRP1-HEK293 (ABCC1) cells; settings: for R.R of etoposide in the presence of the treatment: MRP1-HEK293 / pcDNA-HEK293
in vitro [4] = settings: human, MRP1-HEK293 cells (ABCC1-transfected HEK293)
[5] = system: R482-HEK293 (ABCG2) cells; assay: in vitro; format: cell-based, human; settings: for R.R (relative resistance): IC50 R482-HEK293 / IC50 pcDNA-HEK293, drug alone
A375-G2 cells = assay: cells; format: cell-based, human; settings: for IC50: Homo sapiens, A-375
ABCG2 [6] = biological target: T1, ABCG2 (Homo sapiens, UniProt Q9UNQ0)
T1 sequence (Q9UNQ0 1-655): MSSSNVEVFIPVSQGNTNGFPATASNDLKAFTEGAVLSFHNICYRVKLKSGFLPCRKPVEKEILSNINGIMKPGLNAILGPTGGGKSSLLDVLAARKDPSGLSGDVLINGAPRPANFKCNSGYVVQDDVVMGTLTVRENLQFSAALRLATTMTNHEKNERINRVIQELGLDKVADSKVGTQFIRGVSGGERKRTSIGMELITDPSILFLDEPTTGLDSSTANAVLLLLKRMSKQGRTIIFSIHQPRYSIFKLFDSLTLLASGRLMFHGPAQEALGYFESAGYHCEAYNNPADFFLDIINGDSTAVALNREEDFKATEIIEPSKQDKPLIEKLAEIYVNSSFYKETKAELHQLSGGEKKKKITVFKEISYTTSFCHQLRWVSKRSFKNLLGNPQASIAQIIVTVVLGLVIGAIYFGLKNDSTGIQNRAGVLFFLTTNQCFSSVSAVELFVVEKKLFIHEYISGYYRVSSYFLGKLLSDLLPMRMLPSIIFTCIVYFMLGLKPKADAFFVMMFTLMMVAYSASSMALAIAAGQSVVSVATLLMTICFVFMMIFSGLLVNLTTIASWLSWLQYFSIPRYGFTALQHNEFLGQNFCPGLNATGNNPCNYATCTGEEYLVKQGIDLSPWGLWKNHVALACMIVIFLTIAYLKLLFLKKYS

in vitro [7] = format: cell-based, human; settings: human, R482-HEK293 cells (ABCG2-transfected HEK293)
[8] = system: BRAF(V600E) mutant A375 melanoma cells; assay: cells; format: cell-based, human
CORL-23/P cells = assay: Cytotoxicity assay; format: cell-based; settings: Homo sapiens, COR-L23
ABCG2 (R482G) = ABCG2 (R482G) (Homo sapiens, UniProt Q9UNQ0, R482G); assay: ABCG2-mediated mitoxantrone efflux, flow cytometry, S1-M1-80
ABCB1 [9] = settings: KBV-1; 0.3 µM-10 µM, 72 h
S1 cells = assay: Cytotoxicity assay; format: cell-based; settings: Homo sapiens
ABCB1 [10] = biological target: T2, ABCB1 (Homo sapiens, UniProt P08183); assay: ABCB1-mediated calcein-AM efflux, flow cytometry; settings: 2 µM, MDR19-HEK293 and KBV-1
MCF7-FLV1000 cells = assay: cells; settings: Homo sapiens, MCF-7 FLV1000
MCF7-AdVp3000 cells = assay: cells; settings: Homo sapiens
ABCB1 [11] = biological target: T2, ABCB1; assay: cell-based
S1-M1-80 cells = assay: cells; settings: Homo sapiens
BRAF kinase = BRAF kinase activity in A375 and A375-G2 cells; format: cell-based, human; settings: 0.2 – 5.0 µM, 4 h
ABCG2 [12] = biological target: T1, ABCG2; assay: Vi-sensitive ATPase activity of ABCG2; format: biochemical
ABCG2 (R482T) = ABCG2 (R482T) (Homo sapiens, UniProt Q9UNQ0, R482T); assay: ABCG2-mediated mitoxantrone efflux, flow cytometry, MCF7-AdVp3000
Colo-205 cells = assay: Cytotoxicity assay; format: cell-based; settings: Homo sapiens
KBV-1 cells = assay: cells; settings: Homo sapiens, KB-V1
ABCG2 [13] = settings: MCF7-FLV1000; 0.3 µM-10 µM, 72 h
ABCB1 [14] = biological target: T2, ABCB1; assay: Vi-sensitive ATPase activity of ABCB1; format: biochemical
ABCG2 (wild type R482) = ABCG2 (wild type R482) (Homo sapiens, UniProt Q9UNQ0); assay: ABCG2-mediated mitoxantrone efflux, flow cytometry, MCF7-FLV1000
[15] = system: drug sensitive parental cells; assay: Fluorescent probe accumulation in drug sensitive parental cells; format: cell-based, human; settings: up to 50 µM
MCF7 cells = assay: Cytotoxicity assay; format: cell-based; settings: Homo sapiens
CORL-23/R cells = assay: cells; settings: Homo sapiens, COR-L23/R
ABCG2 [16] = settings: 2 µM; ABCG2-overexpressing HEK293, MCF7-FLV1000, MCF7-AdVp3000 and S1-M1-80
ABCC1 = format: cell-based, human; settings: CORL-23/R; 0.3 µM-10 µM, 72 h
ABCB1 [17] = biological target: T2, ABCB1; assay: [125I]IAAP photoaffinity labeling of ABCB1
ABCG2 [18] = biological target: T1, ABCG2; assay: biochemical
KB-3-1 cells = assay: Cytotoxicity assay; format: cell-based; settings: Homo sapiens
[19] = doxorubicin + treatment at 1 µM

T2 sequence (P08183 whole entry): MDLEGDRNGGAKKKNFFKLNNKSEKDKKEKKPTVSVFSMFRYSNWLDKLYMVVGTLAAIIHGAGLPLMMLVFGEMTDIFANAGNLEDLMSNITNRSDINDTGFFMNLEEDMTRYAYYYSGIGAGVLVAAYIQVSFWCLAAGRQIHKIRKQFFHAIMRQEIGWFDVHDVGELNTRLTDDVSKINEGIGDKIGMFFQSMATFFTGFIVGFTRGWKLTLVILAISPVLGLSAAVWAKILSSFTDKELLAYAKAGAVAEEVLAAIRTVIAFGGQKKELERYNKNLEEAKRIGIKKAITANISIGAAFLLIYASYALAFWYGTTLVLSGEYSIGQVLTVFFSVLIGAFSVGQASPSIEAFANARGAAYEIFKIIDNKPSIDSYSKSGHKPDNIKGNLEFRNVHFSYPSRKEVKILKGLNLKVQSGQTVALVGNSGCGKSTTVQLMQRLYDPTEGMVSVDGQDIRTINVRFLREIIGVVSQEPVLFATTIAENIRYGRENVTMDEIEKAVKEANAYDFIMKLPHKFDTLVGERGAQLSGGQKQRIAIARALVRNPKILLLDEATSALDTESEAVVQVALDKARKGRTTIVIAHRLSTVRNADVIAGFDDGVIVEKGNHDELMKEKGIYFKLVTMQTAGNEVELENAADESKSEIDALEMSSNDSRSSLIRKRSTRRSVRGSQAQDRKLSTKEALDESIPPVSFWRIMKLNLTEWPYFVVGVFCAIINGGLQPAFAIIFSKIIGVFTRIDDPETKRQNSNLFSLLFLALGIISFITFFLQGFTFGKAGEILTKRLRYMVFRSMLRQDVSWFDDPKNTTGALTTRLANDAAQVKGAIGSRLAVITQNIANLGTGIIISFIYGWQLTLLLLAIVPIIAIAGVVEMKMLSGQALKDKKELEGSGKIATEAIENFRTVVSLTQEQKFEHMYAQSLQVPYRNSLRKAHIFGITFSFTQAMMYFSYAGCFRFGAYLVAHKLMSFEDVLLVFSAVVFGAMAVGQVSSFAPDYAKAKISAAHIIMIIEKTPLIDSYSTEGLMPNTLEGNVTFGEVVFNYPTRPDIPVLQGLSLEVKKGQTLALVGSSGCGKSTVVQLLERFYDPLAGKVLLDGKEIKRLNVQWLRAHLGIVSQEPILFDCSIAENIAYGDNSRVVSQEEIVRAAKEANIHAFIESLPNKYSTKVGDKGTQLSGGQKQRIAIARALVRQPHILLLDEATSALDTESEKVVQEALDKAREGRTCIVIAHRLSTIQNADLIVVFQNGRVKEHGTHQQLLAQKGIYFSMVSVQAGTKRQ
Sequence of ABCG2 (R482T) (Q9UNQ0 whole entry R482T): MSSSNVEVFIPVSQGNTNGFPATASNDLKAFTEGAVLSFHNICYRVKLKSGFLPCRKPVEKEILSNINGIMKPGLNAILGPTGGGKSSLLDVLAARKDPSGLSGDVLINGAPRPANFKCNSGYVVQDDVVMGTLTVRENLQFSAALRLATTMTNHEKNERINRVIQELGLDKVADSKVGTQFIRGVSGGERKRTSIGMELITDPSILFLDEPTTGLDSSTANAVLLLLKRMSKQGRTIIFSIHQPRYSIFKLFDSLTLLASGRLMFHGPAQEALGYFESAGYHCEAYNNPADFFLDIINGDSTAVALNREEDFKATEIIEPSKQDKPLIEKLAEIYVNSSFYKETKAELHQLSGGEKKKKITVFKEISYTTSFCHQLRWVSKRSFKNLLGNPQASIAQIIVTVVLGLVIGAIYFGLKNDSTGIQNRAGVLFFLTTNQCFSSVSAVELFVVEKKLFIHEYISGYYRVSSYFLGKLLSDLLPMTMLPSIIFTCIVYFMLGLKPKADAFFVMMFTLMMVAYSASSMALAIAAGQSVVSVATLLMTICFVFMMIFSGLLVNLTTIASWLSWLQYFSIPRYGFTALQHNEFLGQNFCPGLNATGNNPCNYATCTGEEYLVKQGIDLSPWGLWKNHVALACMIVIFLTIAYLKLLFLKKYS
Sequence of ABCG2 (R482G) (Q9UNQ0 whole entry R482G): as the sequence (Q9UNQ0 whole entry R482T) above, with T482G counted along it

Structure (SMILES): COc1cccc2c1C(=O)c1c(O)c3c(c(O)c1C2=O)C[C@@](O)(C(=O)CO)C[C@@H]3O[C@H]1C[C@H](N)[C@H](O)[C@H](C)O1 [Doxorubicin]
- IC50 [1]: 0.594 ± 0.078 µM
- R.R (relative resistance) ([2]; IC50 MDR19-HEK293 / IC50 pcDNA-HEK293, drug alone): 32
- IC50 (pcDNA-HEK293 cells): 0.0185 ± 0.00831 µM

- IC50 (in vitro [4]): 34.9 ± 4.03 µM
Structure (SMILES): COc1cc([C@@H]2c3cc4c(cc3[C@@H](O[C@@H]3O[C@@H]5CO[C@@H](C)O[C@H]5[C@H](O)[C@H]3O)[C@H]3COC(=O)[C@H]23)OCO4)cc(OC)c1O [Etoposide]
- R.R (relative resistance) ([3]; IC50 MRP1-HEK293 / IC50 pcDNA-HEK293, drug alone): 161
- IC50 (pcDNA-HEK293 cells): 0.217 ± 0.072 µM

Structure (SMILES): COc1ccc2c3c([nH]c2c1)[C@H](C=C(C)C)N1C(=O)[C@@H]2CCCN2C(=O)[C@@H]1C3 [FTC, Fumitremorgin C]
- R.R of mitoxantrone in the presence of the treatment ([5]; R482-HEK293 / pcDNA-HEK293, mitoxantrone + treatment at 3 µM): 5
- R.R of topotecan in the presence of the treatment ([5]; R482-HEK293 / pcDNA-HEK293, topotecan + treatment at 3 µM): 3
- R.R of mitoxantrone in the presence of the treatment (A375-G2 cells; A375-G2 / A375, mitoxantrone + treatment at 3 µM): 2
- R.R of vemurafenib in the presence of the treatment (A375-G2 cells; A375-G2 / A375, vemurafenib + treatment at 3 µM): 1
- reversal of ABCG2-mediated resistance to vemurafenib (A375-G2 cells; A375-G2, FTC 3 µM (Table 2)): reversed completely
- ABCG2-mediated efflux of pheophorbide A (ABCG2 [6]; A375-G2, 5 µM): inhibited completely

Structure (SMILES): O=C1c2c(O)ccc(O)c2C(=O)c2c(NCCNCCO)ccc(NCCNCCO)c21 [Mitoxantrone]
- R.R (relative resistance) [5]: 34
- IC50 (in vitro [7]): 0.178 ± 0.019 µM
- fold more resistant, A375-G2 than parental A375 cells (A375-G2 cells): over 6 fold
- IC50 (A375-G2 cells): 0.015 ± 0.00348 µM
- R.R (relative resistance) (A375-G2 cells; IC50 A375-G2 / IC50 A375, drug alone): 6
- IC50 ([8]; Homo sapiens, A-375, A375, drug alone): 0.00235 ± 0.00064 µM
- IC50 (pcDNA-HEK293 cells): 0.0053 ± 0.00124 µM

Structure (SMILES): COc1cc2c(cc1OC)CN(CCc1ccc(NC(=O)c3cc(OC)c(OC)cc3NC(=O)c3cnc4ccccc4c3)cc1)CC2 [Tariquidar]
- R.R of doxorubicin in the presence of the treatment [2, 19]: 3

- IC50 (in vitro [7]): 0.51 ± 0.0945 µM
Structure (SMILES): CC[C@@]1(O)C(=O)OCc2c1cc1n(c2=O)Cc2cc3c(CN(C)C)c(O)ccc3nc2-1 [Topotecan]
- R.R (relative resistance) [5]: 28
- IC50 (pcDNA-HEK293 cells): 0.0183 ± 0.00448 µM

Structure (SMILES): CCCS(=O)(=O)Nc1ccc(F)c(C(=O)c2c[nH]c3ncc(-c4ccc(Cl)cc4)cc23)c1F [Vemurafenib]
- IC50 (CORL-23/P cells): 8.52 ± 1.39 µM
- IC50 (ABCG2 (R482G)): 2.6 µM
- effect on ABCB1 protein expression level (ABCB1 [9]): no significant effect
- R.R of etoposide in the presence of the treatment ([3]; etoposide + treatment at 1 µM): 159
- R.R of etoposide in the presence of the treatment ([3]; etoposide + treatment at 2 µM): 165
- R.R of etoposide in the presence of the treatment ([3]; etoposide + treatment at 5 µM): 116
- IC50 (S1 cells): 13.7 ± 3.84 µM
- effect on drug efflux mediated by ABCB1 (ABCB1 [10]): no significant effect
- IC50 (MCF7-AdVp3000 cells): 70 ± 27.4 µM
- IC50 (ABCB1 [11]): > 50 µM
- R.R of doxorubicin in the presence of the treatment [2, 19]: 23
- R.R of doxorubicin in the presence of the treatment ([2]; doxorubicin + treatment at 2 µM): 23
- IC50 (S1-M1-80 cells): 14.7 ± 3.02 µM
- inhibitory effect on p-MEK1/2, A375 versus A375-G2 (BRAF kinase): comparable
- levels of total MEK1/2 and ERK1/2 (BRAF kinase; A375 and A375-G2): remained unchanged
- levels of p-MEK1/2 and p-ERK1/2 (BRAF kinase; A375 and A375-G2, concentration-dependent): reduced
- stimulation of ATPase activity above basal level (ABCG2 [12]; lower concentrations): ~ 95%
- IC50 (ABCG2 (R482T)): 4.91 µM
- IC50 (Colo-205 cells): 0.118 ± 0.011 µM
- IC50 (KBV-1 cells): 16.9 ± 4.97 µM
- effect on ABCG2 protein expression level (ABCG2 [13]): no significant effect
- inhibition of ATPase activity (ABCB1 [14]; higher concentrations): ~ 50%
- stimulation of ATPase activity above basal level (ABCB1 [14]; lower concentrations): ~ 40%
- IC50 (ABCG2 (wild type R482)): 1.24 µM
- effect on accumulation of fluorescent probes in drug sensitive parental cells [15]: no effect
- R.R of mitoxantrone in the presence of the treatment (A375-G2 cells; A375-G2 / A375, mitoxantrone + treatment at 0.02 µM): 2
- IC50 (MCF7 cells): 53.6 ± 9.42 µM
- IC50 (CORL-23/R cells): 8.54 ± 2.25 µM
- ABCG2-mediated efflux of PhA (ABCG2 [16]): inhibited significantly
- IC50 (pcDNA-HEK293 cells): 28.1 ± 6.93 µM
- ABCG2-mediated efflux of pheophorbide A (ABCG2 [6]): inhibited completely
- effect on ABCC1 protein expression level (ABCC1): no significant effect
- IC50 (ABCB1 [17]): 4.51 µM
- IC50 (ABCG2 [18]): 0.57 µM
- IC50 (KB-3-1 cells): 14.8 ± 4.19 µM
